Assays:
[1] = target: T1, SHP-2 enzyme (Met1-Leu525), SHP2wt (Homo sapiens, UniProt Q06124); assay: SHP2 inhibition enzymatic assay; format: biochemical; conditions: 0.5 nM SHP-2 activated by 500 nM IRS1 peptide, 75 μM DiFMUP substrate
T1 construct: synthetized by Origene, Met1-Leu525, cat #TP750155; purchased Origene TP750155
T1 sequence (Q06124 1-525): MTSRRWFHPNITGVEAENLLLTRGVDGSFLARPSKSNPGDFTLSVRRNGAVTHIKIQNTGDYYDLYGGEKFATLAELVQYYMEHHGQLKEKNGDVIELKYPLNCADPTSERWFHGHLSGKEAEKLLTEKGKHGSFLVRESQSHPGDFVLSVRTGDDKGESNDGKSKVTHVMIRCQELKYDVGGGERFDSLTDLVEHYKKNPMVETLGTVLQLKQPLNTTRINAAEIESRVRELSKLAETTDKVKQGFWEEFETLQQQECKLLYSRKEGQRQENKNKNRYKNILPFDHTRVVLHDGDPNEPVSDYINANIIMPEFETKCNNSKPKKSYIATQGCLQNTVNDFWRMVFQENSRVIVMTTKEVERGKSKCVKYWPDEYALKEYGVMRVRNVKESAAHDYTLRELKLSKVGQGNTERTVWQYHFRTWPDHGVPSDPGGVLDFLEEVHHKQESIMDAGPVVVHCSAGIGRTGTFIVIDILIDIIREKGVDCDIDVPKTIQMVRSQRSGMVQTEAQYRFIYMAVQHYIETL
Procedure, shortened: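 Human SHP2 (Met1-Leu525, 0.5 nM) activated by 500 nM bis-phosphorylated IRS1 peptide, pre-incubated 30 min with compound, then 75 μM DiFMUP for 30 min at rt in HEPES pH 7.2, NaCl/KCl, EDTA, Tween-20, 5 mM DTT. Reaction quenched with bpV, fluorescence read; IC50 by four-parameter logistic fit.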

[2] = test system: phospho-ERK1/2 (Thr202/Tyr204); assay: Phospho-ERK cellular assay; format: cell-based; conditions: Homo sapiens; KYSE-520 cells, 2 h at 37° C, TR-FRET; read-out: pERK IC50
Procedure, shortened: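 KYSE-520 cells treated overnight-after-plating with serially diluted compounds for 2 h at 37° C, then lysed. Phospho-ERK1/2 measured by TR-FRET after overnight antibody incubation at rt; inhibition normalized between DMSO (0%) and no-cell (100%) wells, IC50 from four-parameter logistic fit.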

[3] = target: T2, recombinant SHP2 protein (AviTag-G4SG4S-SHP2(1-525)) (Homo sapiens, UniProt Q06124); assay: Binding kinetic assay by surface plasmon resonance (SPR); conditions: for Residence time 1/koff SPR: 1/koff from SPR; for koff: Biacore T200, single cycle kinetic, 25° C, 1:1 Langmuir model
T2 construct: recombinant SHP2 protein (AviTag-G4SG4S-SHP2(1-525)); purchased VIVA Biotech Ltd (custom production)
T2 sequence (Q06124 1-525): T1 sequence (Q06124 1-525)
Description: A N-term biotinylated recombinant SHP2 protein (AviTag-G4SG4S-SHP2(1-525)) was custom produced by VIVA Biotech Ltd. Binding kinetic rate constants were measured by SPR, using a Biacore T200 instrument. The recombinant SHP2 protein was diluted at […] in HBS-P+ buffer, then captured on a series S streptavidin sensor chip up to 5000 RU. Binding of compounds was assessed by a single cycle kinetic procedure (SCK): compounds were diluted in HBS-EP+ supplemented with 20% DMSO (from 300 to 3.7 nM, 3 fold dilution), injected for 120 s over the ligand, then dissociation rate measured for 3600 s, at […] and 25° C. Sensorgrams were analysed by Biacore T200 evaluation software: binding rate constants (kon, koff) and affinity (KD) were calculated by curve filling according to a 1:1 Langmuir model. Each molecule was tested in triplicate on separate flow channels.

[4] = Determination of brain penetration in SD rats; format: in vivo; conditions: Sprague-Dawley (SD), rat; male SD rats, IV 0.2 mg/kg, unbound brain to plasma ratio at 8 h; read-out: Kpuu, brain
Description: Total brain levels, expressed as brain/plasma ratio (Kp,brain) were measured by Cbrain@8h/Cplasma@8h in SD rats after IV administration (see Pharmaceutical Research, Vol. 25, No. 8, August 2008 DOI: 10.1007/s11095-007-9502-2; Pharmaceutical Research (2022) 39:1321-1341 https://doi.org/10.1007/s11095-022-03246-6). Unbound fraction of each molecule in biological matrix was determined by in vitro plasma and brain binding assay. Kpuu, brain was calculated by the following equation: […]
In vitro plasma and brain binding assay was carried out on a RED (Rapid Equilibrium Dialysis) device. Unbound fraction (fu) of each molecule in the brain homogenate and plasma were calculated by the ratio of the buffer side response to the brain homogenate/plasma side response. An IV study design was used as the in vivo screening model to identify brain penetration of each molecule. Male naïve SD rats (n=3) were intravenously dosed with each molecule at 0.2 mg/kg in DMSO/Propylene Glycol/Water, 20:60:20 (v/v/v). At 0.083, 0.25, 0.5, 1, 2, 4, and 8 h post-dose plasma samples were collected via tail vein and brain tissue was harvested at the 8 h time point and homogenized in 3× volume of water. All samples were stored at ˜−80° C. prior to LC/MS/MS analysis. At the 8 h time point, the unbound brain to plasma ratios were generated to identify molecules with Kpuu, brain values>0.3 which is indicative of good passive brain penetration.

Structure (SMILES) | IC50 [1] [nM] | IC50 [2] [nM] | Residence time 1/koff SPR [3] [s] | koff [3] [s⁻¹] | Kp uu at 8 h [4]
N[C@@H]1c2ccnn2CC12CCN(c1cnc(Sc3ccccc3F)cn1)CC2 [Example 21, (S)-1-(5-((2-fluorophenyl)thio)pyrazin-2-yl)-4′H,6′H-spiro[piperidine-4,5′-pyrrolo[1,2-b]pyrazol]-4′-amine] | ≤ 50 | < 100 | 11001 | 9.09e-05 | > 0.3
Cc1cccc(Sc2cnc(N3CCC4(CC3)Cn3nccc3[C@H]4N)cn2)c1F [Example 36, (S)-1-(5-((2-fluoro-3-methylphenyl)thio)pyrazin-2-yl)-4′H,6′H-spiro[piperidine-4,5′-pyrrolo[1,2-b]pyrazol]-4′-amine] | ≤ 50 | < 100 | 53571 | 1.87e-05 | < 0.3
N[C@@H]1c2ccnn2CC12CCN(c1cnc(Sc3ccnc4ccccc34)cn1)CC2 [Example 39, (S)-1-(5-(quinolin-4-ylthio)pyrazin-2-yl)-4′H,6′H-spiro[piperidine-4,5′-pyrrolo[1,2-b]pyrazol]-4′-amine] | ≤ 50 | < 100 | 5474 | 0.000183 | > 0.3
N[C@@H]1c2ccnn2CC12CCN(c1cnc(Sc3cccc(-n4ccnc4)c3Cl)cn1)CC2 [Example 44, (S)-1-(5-((2-chloro-3-(1H-imidazol-1-yl)phenyl)thio)pyrazin-2-yl)-4′H,6′H-spiro[piperidine-4,5′-pyrrolo[1,2-b]pyrazol]-4′-amine] | ≤ 50 | < 100 | 3417 | 0.000293 | > 0.3

Source: patent publication US20260109699A1, “AZOLE DERIVATIVES AS SHP2 INHIBITORS” (IRBM S.P.A., priority 2022, published 2026)
